According to US11814376B2, “Hepatitis b core protein modulators” (Assembly Biosciences, Inc., priority 2015, dated 2023):

Experiments:
[1] = system: HBV viral load in AD38 cells; assay: Viral load production in AD38 cells, quantitative PCR of the core sequence in supernatant; assay type: cell-based; details: 10 μM compound, 6 days at 37° C., supernatant qPCR, relative to DMSO control; for activity at 10 µM: Hepatitis B virus, 144 h, read-out: AD38 Viral Load (%) (VL with cmpd/VL in DMSO control) at 10 μM
AD38 cells = assay: Viability of AD38 cells (Promega CellTiter-Glo); assay type: cell-based; details: 10 μM compound, 6 days, CellTiter-Glo luminescence normalized to DMSO control (100%)
Method in brief: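 After 6 days of compound exposure at 37° C (compound added as 10× solution in 10% DMSO; 50,000 cells/well, collagen-coated), medium was replaced with tetracycline-free DMEM/F12, 2% FBS, 1% DMSO. CellTiter-Glo luminescence was then recorded and normalized to DMSO-treated wells as 100% viability.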

SMILES | activity at 10 µM [1] [%] | AD38 Viability Normalized Result (cmpd/DMSO %) at 10 μM (AD38 cells) [%] | AD38 Viral Load (%) (VL with cmpd/VL in DMSO control) at 10 μM [1]
Cl.O=C(NCc1cnc(-c2ccc(OC[C@H]3CCNC3)cc2)s1)c1ccc2c(c1)NC(=O)c1ccccc1S2(=O)=O [compound 11139, (S)-11-oxo-N-((2-(4-(pyrrolidin-3-ylmethoxy)phenyl)thiazol-5-yl)methyl)-10, 11-dihydrodibenzo [b, f] [1, 4] thiazepine-8-carboxamide 5,5-dioxide hydrochloride] | 5.5 | 104 | 
O=C(NCc1cnc(-c2ccc(OC[C@@H]3CCNC3)cc2)s1)c1ccc2c(c1)NC(=O)c1ccccc1S2(=O)=O [compound 11140, (R)-11-oxo-N-((2-(4-(pyrrolidin-3-ylmethoxy)phenyl)thiazol-5-yl)methyl)-10, 11-dihydrodibenzo [b, f] [1, 4] thiazepine-8-carboxamide 5,5-dioxide] | 5.5 | 99 | 
O=C(NCc1cnc(-c2ccc(OCCCN3CCC3)cc2)s1)c1ccc2c(c1)NC(=O)c1ccccc1S2(=O)=O [compound 11142] |  | 87 | 0.8
Cc1c(C(=O)NCc2cnc(-n3cc(F)cn3)s2)ccc2c1NC(=O)c1ccccc1S2(=O)=O [compound 11148] | 0.3 | 98 | 
Cc1c(C(=O)NCc2cnc(-n3cc(C(F)(F)F)cn3)s2)ccc2c1NC(=O)c1ccccc1S2(=O)=O [compound 11149] | 0.2 | 100 | 
Cc1c(C(=O)NCc2cnc(-c3ccc(F)cn3)s2)ccc2c1NC(=O)c1ccccc1S2(=O)=O [compound 11150] | 0.4 | 100 | 
Cc1c(C(=O)NCc2cnc(-c3cc[nH]n3)s2)ccc2c1NC(=O)c1ccccc1S2(=O)=O [compound 11152] | 1.6 | 96 | 
CN(C)C1CN(Cc2ccc(-c3ncc(CNC(=O)c4ccc5c(c4)NC(=O)c4ccccc4S5(=O)=O)s3)cc2)C1 [compound 11158] | 6.4 | 100 | 
O=C(NCc1cnc(-c2ccc(OCCCN3CCCCC3)cc2)s1)c1ccc2c(c1)NC(=O)c1ccccc1O2 [compound 11160, 11-oxo-N-((2-(4-(3-(piperidin-1-yl)propoxy)phenyl)thiazol-5-yl)methyl)-10, 11-dihydrodibenzo [b, f] [1, 4] oxazepine-8-carboxamide] | 17.7 | 104 | 
O=C(NCc1cnc(-c2ccc(OCCCN3CCOCC3)cc2)s1)c1ccc2c(c1)NC(=O)c1ccccc1O2 [compound 11161, N-((2-(4-(3-morpholinopropoxy)phenyl)thiazol-5-yl)methyl)-11-oxo-10, 11-dihydrodibenzo [b, f] [1, 4] oxazepine-8-carboxamide] | 1.7 | 104 | 
CCN(CC)CCCOc1ccc(-c2ncc(CNC(=O)c3ccc4c(c3)NC(=O)c3ccccc3O4)s2)cc1.Cl [compound 11162, N-((2-(4-(3-(diethylamino)propoxy)phenyl)thiazol-5-yl)methyl)-11-oxo-10, 11-dihydrodibenzo [b, f] [1, 4] oxazepine-8-carboxamide hydrochloride] | 8.7 | 104 | 
N#CC1(COc2ccc(-c3ncc(CNC(=O)c4ccc5c(c4)NC(=O)c4ccccc4S5(=O)=O)s3)cc2)CCC1 [compound 11182] | 0.7 | 104 | 
